Laboratory results as given in BindingDB's records for doi:10.1074/jbc.M607293200 (The Scripps Research Institute, 2007).

target: T1, Phosphoribosylglycinamide formyltransferase (Escherichia coli (strain K12), UniProt P08179); test: GAR Tfase Activity Assay; conditions: pH 7.5; 26 °C
T1 sequence (P08179 whole entry): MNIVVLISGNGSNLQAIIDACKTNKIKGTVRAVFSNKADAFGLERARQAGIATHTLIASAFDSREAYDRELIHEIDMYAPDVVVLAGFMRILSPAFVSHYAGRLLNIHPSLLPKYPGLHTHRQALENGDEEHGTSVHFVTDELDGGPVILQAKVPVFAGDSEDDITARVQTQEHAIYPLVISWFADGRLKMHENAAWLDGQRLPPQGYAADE

Ki [µM] | Structure (SMILES)
0.1 | Nc1nc2c(c(=O)[nH]1)C[C@@H](CCc1ccc(C(=O)N[C@@H](CCC(=O)O)C(=O)O)cc1)CN2 [5,10-dideazatetrahydrofolic acid]
> 100 | O=C1NS(=O)(=O)Nc2c1ncn2[C@@H]1O[C@H](COP(=O)(O)O)[C@@H](O)[C@H]1O [{[(2R,3S,4R,5R)-3,4-dihydroxy-5-(2,2,4-trioxo-1H,3H,4H,7H-2,1,3,5,7-imidazo[4,5-c][1,2,6]thiadiazin-7-yl)oxolan-2-yl]methoxy}phosphonic acid]
> 100 | O=C1NS(=O)(=O)Nc2c1ncn2[C@@H]1O[C@H](CO)[C@@H](O)[C@H]1O [7-[(2R,3R,4S,5R)-3,4-dihydroxy-5-(hydroxymethyl)oxolan-2-yl]-1H,3H,4H,7H-2,1,3,5,7-imidazo[4,5-c][1,2,6]thiadiazine-2,2,4-trione]

Structure (SMILES) | Ki [µM]
O=C1NS(=O)(=O)Nc2nc[nH]c21 [1H,3H,4H,7H-2,1,3,5,7-imidazo[4,5-c][1,2,6]thiadiazine-2,2,4-trione] | > 100
